Patent publication US20210262008A1, “METHOD OF PERSONALIZED TREATMENT FOR CARDIOMYOPATHY AND HEART FAILURE AND OTHER RELATED DISEASES BY MEASURING RENIN ACTIVITY, PRO-RENIN, PRO-RENIN RECEPTOR LEVELS IN BLOOD” (priority 2018, published 2021)
Like-named read-outs stand apart in the source and are kept apart here.

Columns and labels:
[1] = system: female mice with dilated cardiomyopathy (DCM); assay: Plasma Ang II, aldosterone and HF biomarkers by enzyme immunoassay in DCM mice at 90 days; assay type: in vivo, mouse; details: for plasma aldosterone levels: 100 mg/kg/day oral, 100 mg/kg/day
From the text: Mice: In the Examples 1-3 below, the mice used were all female littermates with or without dilated cardiomyopathy (DCM) on a C57BL/6 background. DCM is a major cause of HF, which is associated with pathological dilation of the heart ventricles and declines in heart contractile or systolic function. DCM mice express transgene dominant negative CREB transcription factor, specific to cardiomyocytes and develop a consistent progressive DCM and HF similar to humans. In female mice with DCM renal function remains within normal range up to the terminal HF stage, as measured by plasma BUN and creatinine. DCM mice (mCREBTg) are slightly hypotensive at 91 days of age compared to mCREB WT. mCREB mice were randomly assigned to experimental groups. Groups were denoted as WT (n=20), DCM (Control, n=28), and DCM+direct renin inhibitor treatment (+DRI, n=29). At 90-day censorship, dissected organs were weighed, and terminal blood was collected via cardiocentesis with EDTA-aprotinin syringes to prevent proteolysis of targeted proteins. The blood samples were centrifuged at 3000 rpm for 20 min at 4° C. Plasma samples were aliquoted and stored at −80° C. until analysis.
(§1) Dose calculations were based on an average consumption of 5 mL of water/day/mouse. […] The oral dose was chosen to closely mimic the human route of delivery, while not altering the blood pressure, associated with elevated plasma Ang II-aldosterone levels, given the low bioavailability of the drug in rodents. […] No issues with palatability or clinical dehydration were noted throughout the study as assessed by blinded husbandry and veterinary staff. […] The administration was started at 50 days of age to coincide with the previously identified timeline of increased renin activity and development of stage B HF in female DCM mice]. Aliskiren water was provided ad libitum throughout life. All untreated mice (WT and DCM+vehicle) received ad lib 3 ppm hyperchlorinated facility water via an automated watering system (Edstrom, Waterford, Wis., USA).
Enzyme Immunoassay: Plasma Ang II, aldosterone, atrial natriuretic peptide (N terminus-ANP), cyclic guanosine monophosphate (cGMP), neprilysin, and corin levels were measured by enzyme immunoassays according to the manufacturers' protocols (Phoenix Pharm. Inc., Burlingame, Calif., USA; Abcam Inc., Cambridge, Mass., USA; Enzo Life Sciences Inc., Farmingdale, N.Y., USA; Boster Biological Technology, Pleasanton, Calif., USA; USCN Life Science Inc., Houston, Tex., USA).

[2] = orally in rats; cited from earlier work
[3] = in humans; cited from earlier work
[4] = system: blood pressure; details: 15-50 mg/kg/day via subcutaneous osmotic pumps, previous studies; cited from earlier work
[5] = target: T1, mouse renin (Mus musculus, UniProt P06281); assay: Plasma renin activity assay (FRET substrate) in plasma of treated DCM mice; assay type: in vivo; details: female DCM mice, 100 mg/kg/day orally in drinking water from 50 days of age, measured at 90 days, vs DCM control
T1 construct: from tissue; host or cells: plasma (terminal blood, cardiocentesis) of female DCM (mCREB transgenic) mice on a C57BL/6 background
T1 sequence (P06281 72-402): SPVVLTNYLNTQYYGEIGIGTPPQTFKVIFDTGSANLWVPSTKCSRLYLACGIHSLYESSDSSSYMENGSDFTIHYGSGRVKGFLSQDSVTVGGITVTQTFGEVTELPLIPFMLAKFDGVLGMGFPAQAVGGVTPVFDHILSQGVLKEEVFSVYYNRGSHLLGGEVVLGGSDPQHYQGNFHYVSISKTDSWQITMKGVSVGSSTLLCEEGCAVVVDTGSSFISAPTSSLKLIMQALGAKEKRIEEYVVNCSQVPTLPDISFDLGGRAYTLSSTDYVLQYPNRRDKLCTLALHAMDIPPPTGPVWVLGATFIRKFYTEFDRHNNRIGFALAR
Procedure: Plasma samples were aliquoted and stored at −80° C. until analysis.

[6] = system: female mice with dilated cardiomyopathy (DCM); assay: Kaplan-Meier survival of female DCM mice; assay type: in vivo, mouse
From the text: Mice: In the Examples 1-3 below, the mice used were all female littermates with or without dilated cardiomyopathy (DCM) on a C57BL/6 background. DCM is a major cause of HF, which is associated with pathological dilation of the heart ventricles and declines in heart contractile or systolic function. DCM mice express transgene dominant negative CREB transcription factor, specific to cardiomyocytes and develop a consistent progressive DCM and HF similar to humans. In female mice with DCM renal function remains within normal range up to the terminal HF stage, as measured by plasma BUN and creatinine. DCM mice (mCREBTg) are slightly hypotensive at 91 days of age compared to mCREB WT. mCREB mice were randomly assigned to experimental groups. […]
Dose calculations were based on an average consumption of 5 mL of water/day/mouse. […] No issues with palatability or clinical dehydration were noted throughout the study as assessed by blinded husbandry and veterinary staff. […]
Statistical Analysis: Statistical analyses were performed with GraphPad Prism 7.04 software (GraphPad Software, La Jolla, Calif., USA) using Student's t-test, one-way ANOVA, or two-way ANOVA with Tukey's multiple comparisons test (unless otherwise indicated) and Pearson's correlation. Survival was analyzed using Kaplan-Meier curves with the Mantel-Cox test. […]

[7] = system: female mice with dilated cardiomyopathy (DCM); assay: Echocardiography of DCM mice at 90 days of age; assay type: in vivo, mouse
[8] = system: mice; details: mouse, in vivo
Procedure: as §1

Compound: COCCCOc1cc(C[C@@H](C[C@H](N)[C@@H](O)C[C@H](C(=O)NCC(C)(C)C(N)=O)C(C)C)C(C)C)ccc1OC [aliskiren, aliskiren hemifumarate]
- plasma Ang II levels ([1]; female DCM mice, 100 mg/kg, DCM+DRI vs DCM+vehicle): no significant difference
- plasma aldosterone levels ([1]; female DCM mice, vs DCM control): not modulated by treatment
- plasma aldosterone levels ([1]; female DCM mice, vs DCM control, listed as DRI-aliskiren): no significant difference
- ANP plasma levels ([1]; vs DCM control): not affected
- corin plasma levels ([1]; vs DCM control): not affected
- plasma cGMP levels ([1]; vs DCM control): non-significant trend toward lower levels
- plasma neprilysin levels ([1]; vs DCM control, P<0.001, listed as DRI): normalized plasma neprilysin levels
- plasma neprilysin levels ([1]; vs DCM control, P<0.001, listed as DRI-aliskiren): lowered neprilysin to WT levels
- bioavailability [2]: 2.6%
- bioavailability [3]: low
- blood pressure [4]: no alteration in blood pressure
- plasma renin activity (PRA) [5]: significantly reduced elevated PRA to normal levels
- plasma renin activity (PRA) ([5]; listed as DRI-aliskiren): normalized pathological renin activity
- median survival ([6]; 100 mg/kg/day oral, control 103 days, P<0.05): 110 days
- outlived the control mice (survival gain) ([6]; median survival vs control): 7%
- heart rate ([7]; anesthetized, control 419±10 bpm, P<0.01): 469±14 bpm
- cardiac output (CO mL/min) ([7]; vs control DCM mice, P<0.01): improved
- systolic function, ejection fraction (EF %) ([7]; vs control DCM mice, P<0.05): improved
- systolic function, fractional shortening (FS %) ([7]; vs control DCM mice, P<0.05): improved
- palatability or clinical dehydration [8]: No issues
- side effects / abnormal clinical observations ([8]; 100 mg/kg/day): no side effects or abnormal clinical observations
